Reference: ChEMBL document CHEMBL5346977, “Discovery of Novel d-(+)-Biotin-Conjugated Resorcinol Dibenzyl Ether-Based PD-L1 Inhibitors for Targeted Cancer Immunotherapy” (J Med Chem, 2023)
Calls of active or inactive are those of the source. No cut-off for these calls is given here.

Experiments:
[1] = Drug concentration in brain of C57BL/6 mouse implanted with mouse B16-F10 cells at 50 mg/kg, ip measured after 1 hrs by UPLC-MS/MS analysis; assay type: ADME, organism-based; conditions: read-out: Ct
[2] = Drug concentration in plasma of C57BL/6 mouse implanted with mouse B16-F10 cells at 50 mg/kg, ip measured after 1 hrs by UPLC-MS/MS analysis; assay type: ADME, organism-based
[3] = tested on: B16-F10; assay: Antitumor activity against mouse B16-F10 cells implanted in allogenic BALB/c mouse assessed as decrease in PD-L1 mRNA level at 50 mg/kg, ip by qPCR analysis; assay type: functional, organism-based
[4] = Toxicity in allogenic BALB/c mouse implanted with mouse B16-F10 cells assessed as inflammatory cell infiltration in colon at 50 mg/kg, ip by H&E staining based analysis; assay type: organism-based; conditions: in vivo
[5] = AUC (0 to t) in Sprague-Dawley rat at 1 mg/kg, iv administered as single dose and measured after 48 hrs by HPLC-MS/MS analysis; assay type: ADME, organism-based; design: dose 1 mg/kg, time 48 hrs, route iv; conditions: in vivo
[6] = Drug concentration in spleen of C57BL/6 mouse implanted with mouse B16-F10 cells at 50 mg/kg, ip measured after 2 hrs by UPLC-MS/MS analysis; assay type: ADME, organism-based; conditions: read-out: Ct
[7] = Drug concentration in tumor of C57BL/6 mouse implanted with mouse B16-F10 cells at 50 mg/kg, ip measured after 1 hrs by UPLC-MS/MS analysis; assay type: ADME, organism-based, Neoplasm; conditions: read-out: Ct
[8] = MRT (0 to t) in Sprague-Dawley rat at 1 mg/kg, iv administered as single dose and measured after 48 hrs by HPLC-MS/MS analysis; assay type: ADME, organism-based; conditions: in vivo
[9] = Drug concentration in spleen of C57BL/6 mouse implanted with mouse B16-F10 cells at 50 mg/kg, ip measured after 4 hrs by UPLC-MS/MS analysis; assay type: ADME, organism-based; conditions: read-out: Ct
[10] = Drug concentration in spleen of C57BL/6 mouse implanted with mouse B16-F10 cells at 50 mg/kg, ip measured after 0.5 hrs by UPLC-MS/MS analysis; assay type: ADME, organism-based; conditions: read-out: Ct
[11] = Drug concentration in kidney of C57BL/6 mouse implanted with mouse B16-F10 cells at 50 mg/kg, ip measured after 2 hrs by UPLC-MS/MS analysis; assay type: ADME, organism-based; conditions: read-out: Ct
[12] = Drug concentration in heart of C57BL/6 mouse implanted with mouse B16-F10 cells at 50 mg/kg, ip measured after 4 hrs by UPLC-MS/MS analysis; assay type: ADME, organism-based; conditions: read-out: Ct
[13] = Drug concentration in brain of C57BL/6 mouse implanted with mouse B16-F10 cells at 50 mg/kg, ip measured after 2 hrs by UPLC-MS/MS analysis; assay type: ADME, organism-based; conditions: read-out: Ct
[14] = tested on: B16-F10; assay: Antitumor activity against mouse B16-F10 cells implanted in syngeneic C57BL/6 mouse assessed as inhibition of tumor growth at 50 mg/kg, ip measured after 12 days; assay type: functional, organism-based; conditions: time 12.0 day
[15] = tested on: B16-F10; assay: Antitumor immunity against mouse B16-F10 cells implanted in allogenic BALB/c mouse assessed as increase in CD3+ CD4+ T cells percentage at 50 mg/kg, ip by flow cytometric analysis; assay type: functional, organism-based
[16] = target: Programmed cell death protein 1/Programmed cell death 1 ligand 1 (Homo sapiens, UniProt Q9NZQ7); assay: Inhibition of GST-tagged PD-1 (unknown origin)/His-tagged PD-L1 (unknown origin) interaction by HTRF binding assay relative to control; assay type: protein-complex assay
Sequence of Programmed cell death protein 1/Programmed cell death 1 ligand 1 (Q15116 whole entry): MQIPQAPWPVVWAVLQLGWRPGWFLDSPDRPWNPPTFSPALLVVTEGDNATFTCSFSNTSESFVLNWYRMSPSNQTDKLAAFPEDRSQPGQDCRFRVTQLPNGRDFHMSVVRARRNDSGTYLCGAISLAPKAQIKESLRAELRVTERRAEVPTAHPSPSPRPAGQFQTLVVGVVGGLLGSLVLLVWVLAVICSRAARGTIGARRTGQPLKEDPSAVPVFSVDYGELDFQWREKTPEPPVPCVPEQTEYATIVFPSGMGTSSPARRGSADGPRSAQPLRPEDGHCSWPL
Sequence of Programmed cell death protein 1/Programmed cell death 1 ligand 1 (Q9NZQ7 whole entry): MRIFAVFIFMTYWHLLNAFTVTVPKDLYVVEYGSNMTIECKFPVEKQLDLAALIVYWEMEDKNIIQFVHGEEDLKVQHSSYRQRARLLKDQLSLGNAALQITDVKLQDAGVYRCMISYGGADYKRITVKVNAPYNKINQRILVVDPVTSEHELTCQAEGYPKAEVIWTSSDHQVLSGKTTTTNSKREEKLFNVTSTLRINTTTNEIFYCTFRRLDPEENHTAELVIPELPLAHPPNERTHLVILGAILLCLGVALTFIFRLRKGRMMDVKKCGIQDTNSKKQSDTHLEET

[17] = Apparent volume of distribution in C57BL/6 mouse at 50 mg/kg, ip measured after 4 hrs by HPLC-MS/MS analysis; assay type: ADME, organism-based; conditions: in vivo
[18] = AUC (0 to t) in Sprague-Dawley rat at 20 mg/kg, po measured after 48 hrs by HPLC-MS/MS analysis; assay type: ADME, organism-based; design: dose 20 mg/kg, time 48 hrs, route po; conditions: in vivo
[19] = Drug concentration in heart of C57BL/6 mouse implanted with mouse B16-F10 cells at 50 mg/kg, ip measured after 0.5 hrs by UPLC-MS/MS analysis; assay type: ADME, organism-based; conditions: read-out: Ct
[20] = Drug concentration in kidney of C57BL/6 mouse implanted with mouse B16-F10 cells at 50 mg/kg, ip measured after 0.5 hrs by UPLC-MS/MS analysis; assay type: ADME, organism-based; conditions: read-out: Ct
[21] = tested on: B16-F10; assay: Antitumor immunity against mouse B16-F10 cells implanted in allogenic BALB/c mouse assessed as increase in CD3+ CD8+ T cells percentage at 50 mg/kg, ip by flow cytometric analysis; assay type: functional, organism-based
[22] = target: T1, Programmed cell death protein 1/Programmed cell death 1 ligand 1 (Homo sapiens) (UniProt Q15116+Q9NZQ7); assay: Inhibition of GST-tagged PD-1 (unknown origin)/His-tagged PD-L1 (unknown origin) interaction at 100 nM by HTRF binding assay relative to control; assay type: protein-complex assay
[23] = MRT (0 to t) in C57BL/6 mouse at 50 mg/kg, ip measured after 4 hrs by HPLC-MS/MS analysis; assay type: ADME, organism-based; conditions: in vivo
[24] = AUC (0 to infinity) in C57BL/6 mouse at 50 mg/kg, ip measured after 4 hrs by HPLC-MS/MS analysis; assay type: ADME, organism-based; design: dose 50 mg/kg, time 4 hrs, route ip; conditions: in vivo
[25] = AUC (0 to infinity) in Sprague-Dawley rat at 20 mg/kg, po measured after 48 hrs by HPLC-MS/MS analysis; assay type: ADME, organism-based; design: dose 20 mg/kg, time 48 hrs, route po; conditions: in vivo
[26] = MRT (0 to infinity) in Sprague-Dawley rat at 20 mg/kg, po measured after 48 hrs by HPLC-MS/MS analysis; assay type: ADME, organism-based; conditions: in vivo
[27] = Drug concentration in plasma of C57BL/6 mouse implanted with mouse B16-F10 cells at 50 mg/kg, ip measured after 2 hrs by UPLC-MS/MS analysis; assay type: ADME, organism-based
[28] = Drug concentration in lung of C57BL/6 mouse implanted with mouse B16-F10 cells at 50 mg/kg, ip measured after 1 hrs by UPLC-MS/MS analysis; assay type: ADME, organism-based; conditions: read-out: Ct
[29] = Drug concentration in liver of C57BL/6 mouse implanted with mouse B16-F10 cells at 50 mg/kg, ip measured after 2 hrs by UPLC-MS/MS analysis; assay type: ADME, organism-based; conditions: read-out: Ct
[30] = tested on: B16-F10; assay: Antitumor activity against mouse B16-F10 cells implanted in syngeneic C57BL/6 mouse assessed as decrease in tumor weight at 50 mg/kg, ip measured after 12 days relative to control; assay type: functional; design: scale not given: the % may be the effect or the level left; conditions: time 12 day
[31] = Drug concentration in liver of C57BL/6 mouse implanted with mouse B16-F10 cells at 50 mg/kg, ip measured after 4 hrs by UPLC-MS/MS analysis; assay type: ADME, organism-based; conditions: read-out: Ct
[32] = Drug concentration in liver of C57BL/6 mouse implanted with mouse B16-F10 cells at 50 mg/kg, ip measured after 1 hrs by UPLC-MS/MS analysis; assay type: ADME, organism-based; conditions: read-out: Ct
[33] = Initial drug concentration in C57BL/6 mouse at 50 mg/kg, ip measured after 4 hrs by HPLC-MS/MS analysis; assay type: ADME, organism-based; conditions: in vivo
[34] = target: T1, Programmed cell death protein 1/Programmed cell death 1 ligand 1 (Homo sapiens); assay: Inhibition of GST-tagged PD-1 (unknown origin)/His-tagged PD-L1 (unknown origin) interaction at 10 nM by HTRF binding assay relative to control; assay type: protein-complex assay
[35] = Cmax in Sprague-Dawley rat at 20 mg/kg, po measured after 48 hrs by HPLC-MS/MS analysis; assay type: ADME, organism-based; design: dose 20 mg/kg, time 48 hrs, route po; conditions: in vivo
[36] = Half-life in C57BL/6 mouse at 50 mg/kg, ip measured after 4 hrs by HPLC-MS/MS analysis; assay type: ADME, organism-based; conditions: in vivo

concentration at 1 h [1]: 3 ng/mL
concentration at 1 h [2]: 1460 ng/mL
AUCt [5]: 719 ng·h/mL
concentration at 2 h [6]: 7180 ng/mL
concentration at 1 h [7]: 28.4 ng/mL
MRT last at 48 h [8]: 11.6 h
concentration at 4 h [9]: 7570 ng/mL
concentration at 0.5 h [10]: 4570 ng/mL
concentration at 2 h [11]: 208 ng/mL
concentration at 4 h [12]: 16.3 ng/mL
concentration at 2 h [13]: 4.2 ng/mL
Vz [17]: 39.163 L/kg
AUCt [18]: 1160 ng·h/mL
concentration at 0.5 h [19]: 4.7 ng/mL
concentration at 0.5 h [20]: 134 ng/mL
MRT last at 4 h [23]: 2.24 h
AUC [24]: 14501.641 µg/L/h
AUC [25]: 1170 ng·h/mL
MRT inf [26]: 7.1 h
concentration at 2 h [27]: 1400 ng/mL
concentration at 1 h [28]: 193 ng/mL
concentration at 2 h [29]: 1670 ng/mL
concentration at 4 h [31]: 3650 ng/mL
concentration at 1 h [32]: 1980 ng/mL
C0 [33]: 570.948 ng/mL
Cmax [35]: 177 ng/mL
t1/2 [36]: 14.587 h
Structure (SMILES): Cc1c(COc2cc(OCc3cccc(C#N)c3)c(CN3CCCCC3C(=O)NCCNC(=O)CCCC[C@@H]3SC[C@@H]4NC(=O)N[C@@H]43)cc2Cl)cccc1-c1ccccc1 (stereo partly specified)
Activity [3]: Active
Activity [4]: Non-Toxic
Activity [14]: Active
Activity [15]: Active
IC50 [16]: 1.8 nM
Activity [21]: Active
inhibition [22]: 104%
Activity [30]: 39.1%
inhibition [34]: 103%
